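Cultured in 96-well plates, cells were exposed to test compound for 48 hours across five concentrations. At the GI50, growth is halved. TGI: concentration producing complete growth inhibition.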
Assays:
Experiment in all cases: NCI-60 cell line screen, 48 h
SNB-75 CNS = test system: SNB-75 CNS
IGROV1 ovarian = test system: IGROV1 ovarian
OVCAR-3 ovarian = test system: OVCAR-3 ovarian
T-47D breast = test system: T-47D breast
HCC-2998 colon = test system: HCC-2998 colon
SK-MEL-28 melanoma = test system: SK-MEL-28 melanoma
UO-31 renal = test system: UO-31 renal
NCI-H460 lung = test system: NCI-H460 lung
SK-OV-3 ovarian = test system: SK-OV-3 ovarian
U251 CNS = test system: U251 CNS

`O=C(NC1CCCCC1)N1CCNC1=S` was tested, and the TGI (SNB-75 CNS) was > 100 µM, the TGI (IGROV1 ovarian) was > 100 µM and the TGI (OVCAR-3 ovarian) was > 100 µM. For the same compound, the TGI (T-47D breast) was > 100 µM, the TGI (HCC-2998 colon) was > 100 µM and the TGI (SK-MEL-28 melanoma) was > 100 µM. For the same compound, the TGI (UO-31 renal) was > 100 µM, the TGI (NCI-H460 lung) was > 100 µM and the TGI (SK-OV-3 ovarian) was > 100 µM.
With `COc1c(C(=O)CC2c3c(cc4oc(C)cc(=O)c4c3OC)OC(=N)C2c2nc3ccccc3[nH]2)c(O)c(OC)c2occc12` (centres undefined) the TGI (SNB-75 CNS) was > 100 µM, the TGI (IGROV1 ovarian) was > 100 µM and the TGI (OVCAR-3 ovarian) was > 100 µM. For the same compound, the TGI (T-47D breast) was > 100 µM, the TGI (HCC-2998 colon) was > 100 µM and the TGI (SK-MEL-28 melanoma) was > 100 µM. For the same compound, the TGI (UO-31 renal) was > 100 µM, the TGI (NCI-H460 lung) was > 100 µM and the TGI (SK-OV-3 ovarian) was > 100 µM. The TGI (U251 CNS) was > 100 µM.
Work on `N#Cc1ccccc1C#C/C=C\C#Cc1ccccn1` yielded a TGI (SNB-75 CNS) of 67.6 µM, a TGI (IGROV1 ovarian) of 36.7 µM and a TGI (OVCAR-3 ovarian) of 19.2 µM. For the same compound, the TGI (T-47D breast) was 62.5 µM, the TGI (HCC-2998 colon) was 27.6 µM and the TGI (SK-MEL-28 melanoma) was 36 µM. The TGI (UO-31 renal) was 32.3 µM, the TGI (NCI-H460 lung) was 44.3 µM and the TGI (SK-OV-3 ovarian) was 76.7 µM. For the same compound, the TGI (U251 CNS) was 38.3 µM.
For `CC(=O)[C@H]1CC[C@@H]2[C@]1(C)CC=C1[C@]23C=C[C@]2(C[C@@H](O)CC[C@]12C)C(C(=O)O)C3C(=O)O` (some centres undefined), the TGI (SNB-75 CNS) was > 100 µM, the TGI (IGROV1 ovarian) was > 100 µM and the TGI (OVCAR-3 ovarian) was > 100 µM. For the same compound, the TGI (T-47D breast) was > 100 µM, the TGI (HCC-2998 colon) was > 100 µM and the TGI (SK-MEL-28 melanoma) was > 100 µM. For the same compound, the TGI (UO-31 renal) was > 100 µM, the TGI (NCI-H460 lung) was > 100 µM and the TGI (SK-OV-3 ovarian) was > 100 µM. The TGI (U251 CNS) was > 100 µM.
For `Cn1c(SCc2ccc([N+](=O)[O-])cc2)nnc1C12CC3CC(CC(C3)C1)C2`, the TGI (SNB-75 CNS) was > 10 µM, the TGI (IGROV1 ovarian) was > 10 µM and the TGI (OVCAR-3 ovarian) was > 10 µM. For the same compound, the TGI (T-47D breast) was > 10 µM, the TGI (HCC-2998 colon) was > 10 µM and the TGI (SK-MEL-28 melanoma) was > 10 µM. The TGI (UO-31 renal) was > 10 µM, the TGI (NCI-H460 lung) was > 10 µM and the TGI (SK-OV-3 ovarian) was > 10 µM. For the same compound, the TGI (U251 CNS) was > 10 µM.
For `C=C1C(O)C2OC(=O)C(=C)C2C(OC(=O)/C(C)=C/C)CC2(C)OC2C2OC12` (centres undefined), the TGI (SNB-75 CNS) was > 100 µM, the TGI (IGROV1 ovarian) was > 100 µM and the TGI (OVCAR-3 ovarian) was 26.2 µM. For the same compound, the TGI (T-47D breast) was > 100 µM, the TGI (HCC-2998 colon) was 21.6 µM and the TGI (SK-MEL-28 melanoma) was > 100 µM. The TGI (UO-31 renal) was 81.3 µM, the TGI (NCI-H460 lung) was 91.6 µM and the TGI (SK-OV-3 ovarian) was > 100 µM. The TGI (U251 CNS) was > 100 µM.
In the case of `C#CCn1c(=O)c2cc(OC)c(OC)cc2n(CC#C)c1=O`, the TGI (SNB-75 CNS) is reported as > 10 µM, the TGI (IGROV1 ovarian) is reported as > 10 µM and the TGI (OVCAR-3 ovarian) is reported as > 10 µM. The TGI (T-47D breast) was > 10 µM, the TGI (HCC-2998 colon) was > 10 µM and the TGI (SK-MEL-28 melanoma) was > 10 µM. For the same compound, the TGI (UO-31 renal) was > 10 µM, the TGI (NCI-H460 lung) was > 10 µM and the TGI (SK-OV-3 ovarian) was > 10 µM. For the same compound, the TGI (U251 CNS) was > 10 µM.
Work on `CCc1cc2c(cc1O)CC[C@@H]1[C@@H]2CC[C@]2(C)[C@@H](O)CC[C@@H]12` yielded a TGI (SNB-75 CNS) of 7.59 µM, a TGI (IGROV1 ovarian) of 28.4 µM and a GI50 (OVCAR-3 ovarian) of 2.94 µM. For the same compound, the TGI (OVCAR-3 ovarian) was 11.5 µM, the TGI (T-47D breast) was 32.9 µM and the TGI (HCC-2998 colon) was 24 µM. The TGI (SK-MEL-28 melanoma) was 16.3 µM, the TGI (UO-31 renal) was 21.8 µM and the TGI (NCI-H460 lung) was 20.9 µM. It also gave a TGI (SK-OV-3 ovarian) of 39.6 µM and a TGI (U251 CNS) of 16.7 µM.
In the case of `Cc1ccc2c(=O)cc(-c3ccccc3)[nH]c2n1`, the TGI (SNB-75 CNS) is reported as > 100 µM, the TGI (IGROV1 ovarian) is reported as > 100 µM and the TGI (OVCAR-3 ovarian) is reported as 0.308 µM. For the same compound, the TGI (T-47D breast) was > 100 µM, the TGI (HCC-2998 colon) was 4.68 µM and the TGI (SK-MEL-28 melanoma) was > 100 µM. For the same compound, the TGI (UO-31 renal) was > 81.8 µM, the TGI (NCI-H460 lung) was > 100 µM and the TGI (SK-OV-3 ovarian) was > 21 µM. For the same compound, the TGI (U251 CNS) was > 26.3 µM.
`Cc1cc2nc3c(C)c4ccccc4c(C)n3c2cc1C` was tested, and the TGI (SNB-75 CNS) was > 10 µM, the TGI (IGROV1 ovarian) was > 10 µM and the TGI (OVCAR-3 ovarian) was 7.8 µM. For the same compound, the TGI (T-47D breast) was > 10 µM, the TGI (HCC-2998 colon) was > 10 µM and the TGI (SK-MEL-28 melanoma) was 9 µM. The TGI (NCI-H460 lung) was 4.84 µM, the TGI (SK-OV-3 ovarian) was > 10 µM and the TGI (U251 CNS) was > 10 µM.
`O=C(N/N=C/c1ccc(O)cc1)NNCCO` was tested, and the TGI (SNB-75 CNS) was > 100 µM, the TGI (IGROV1 ovarian) was > 100 µM and the TGI (OVCAR-3 ovarian) was > 100 µM. The TGI (T-47D breast) was > 100 µM, the TGI (HCC-2998 colon) was > 100 µM and the TGI (SK-MEL-28 melanoma) was > 100 µM. The TGI (UO-31 renal) was > 100 µM, the TGI (NCI-H460 lung) was > 100 µM and the TGI (SK-OV-3 ovarian) was > 100 µM. For the same compound, the TGI (U251 CNS) was > 100 µM.
With `C=c1c2ccccc2oc2nc3[nH]c(N)c(C#N)c(N)c3c(=N)c12` the TGI (SNB-75 CNS) was 90.3 µM, the TGI (IGROV1 ovarian) was 42.5 µM and the TGI (OVCAR-3 ovarian) was 43.3 µM. The TGI (T-47D breast) was > 100 µM, the TGI (HCC-2998 colon) was 66.7 µM and the TGI (SK-MEL-28 melanoma) was > 100 µM. The TGI (UO-31 renal) was > 100 µM, the TGI (NCI-H460 lung) was > 100 µM and the TGI (SK-OV-3 ovarian) was > 100 µM. For the same compound, the TGI (U251 CNS) was > 100 µM.
For `Clc1ccc(CCNCCNC2(c3cc4ccccc4s3)CCCCC2)cc1Cl`, the TGI (SNB-75 CNS) was 3.72 µM, the TGI (IGROV1 ovarian) was 3.24 µM and the TGI (OVCAR-3 ovarian) was 2.91 µM. For the same compound, the TGI (T-47D breast) was 4.07 µM, the TGI (HCC-2998 colon) was 2.82 µM and the TGI (SK-MEL-28 melanoma) was 3.24 µM. For the same compound, the TGI (UO-31 renal) was 3.46 µM, the TGI (NCI-H460 lung) was 3.16 µM and the TGI (SK-OV-3 ovarian) was 2.81 µM. It also gave a TGI (U251 CNS) of 2.99 µM.
In the case of `CCOC(=O)C(NS(=O)(=O)c1ccccc1)(C(F)(F)F)P(=O)(OCC(C)C)OCC(C)C` (centres undefined), the TGI (SNB-75 CNS) is reported as > 100 µM, the TGI (IGROV1 ovarian) is reported as > 100 µM and the TGI (OVCAR-3 ovarian) is reported as > 100 µM. The TGI (T-47D breast) was > 100 µM, the TGI (HCC-2998 colon) was > 100 µM and the TGI (SK-MEL-28 melanoma) was > 100 µM. The TGI (UO-31 renal) was > 100 µM, the TGI (NCI-H460 lung) was > 100 µM and the TGI (SK-OV-3 ovarian) was > 100 µM. The TGI (U251 CNS) was > 100 µM.
For `CC(=O)OC1CC[C@@]2(C)C(=CC[C@@H]3[C@@H]2CC[C@]2(C)Nc4c(cnn4-c4ccc(F)cc4)C[C@@H]32)C1` (some centres undefined), the TGI (SNB-75 CNS) was 66.5 µM, the TGI (IGROV1 ovarian) was > 100 µM and the TGI (OVCAR-3 ovarian) was > 100 µM. For the same compound, the TGI (T-47D breast) was > 100 µM, the TGI (HCC-2998 colon) was > 100 µM and the TGI (SK-MEL-28 melanoma) was > 100 µM. The TGI (UO-31 renal) was > 100 µM, the TGI (NCI-H460 lung) was > 100 µM and the TGI (SK-OV-3 ovarian) was > 100 µM. The TGI (U251 CNS) was 47.3 µM.
With `Nc1nc(Cl)cc(Oc2ccc(Cl)cc2)n1` the TGI (SNB-75 CNS) was > 100 µM, the TGI (IGROV1 ovarian) was > 100 µM and the TGI (OVCAR-3 ovarian) was > 100 µM. The TGI (T-47D breast) was > 100 µM, the TGI (HCC-2998 colon) was > 100 µM and the TGI (SK-MEL-28 melanoma) was > 100 µM. The TGI (UO-31 renal) was > 100 µM, the TGI (NCI-H460 lung) was > 100 µM and the TGI (SK-OV-3 ovarian) was > 100 µM. The TGI (U251 CNS) was > 100 µM.
`COc1cc([C@@H]2c3cc4c(cc3[C@H](OC3OC5COC(C(C)C)OC5C(O)C3O)C3COC(=O)[C@@H]32)OCO4)cc(OC)c1OC` (some centres undefined) gave a TGI (SNB-75 CNS) of 96.8 µM, a TGI (IGROV1 ovarian) of 12.5 µM and a TGI (OVCAR-3 ovarian) of 8.55 µM. For the same compound, the TGI (T-47D breast) was 65.5 µM, the TGI (HCC-2998 colon) was 21.7 µM and the TGI (SK-MEL-28 melanoma) was > 100 µM. For the same compound, the TGI (UO-31 renal) was 42.1 µM, the TGI (NCI-H460 lung) was 7.18 µM and the TGI (SK-OV-3 ovarian) was > 100 µM. The TGI (U251 CNS) was > 21.2 µM.
`CCOC(=O)/C(C(N)=O)=C(/O)c1cnccn1` was tested, and the TGI (SNB-75 CNS) was > 100 µM, the TGI (IGROV1 ovarian) was > 100 µM and the TGI (OVCAR-3 ovarian) was > 100 µM. The TGI (T-47D breast) was > 100 µM, the TGI (HCC-2998 colon) was > 100 µM and the TGI (SK-MEL-28 melanoma) was > 100 µM. For the same compound, the TGI (UO-31 renal) was > 100 µM, the TGI (NCI-H460 lung) was > 100 µM and the TGI (SK-OV-3 ovarian) was > 100 µM. The TGI (U251 CNS) was > 100 µM.

Source: PubChem BioAssay (NCI)
